The target of experiment [1] is T1, human MMP-9 (gelatinase B) (Homo sapiens, UniProt P14780).
T1 construct: endogenous in cells; host or cells: HT1080 human fibrosarcoma cells (ATCC CCL-121), PMA-stimulated; enzyme purified from the culture supernatant
Nature of the experiment: Inhibition activity against human MMP-9 (gelatinase B), fluorescent peptide substrate. It is filed as biochemical. Particulars: compounds of the formula (I). Put shortly:
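MMP-9 purified from PMA-stimulated (10 ng/ml) HT1080 supernatant, or commercial enzyme (0.0125-0.025 unit/ml or 0.2 μg/ml final), incubated with compound and 10 μM final Mca-Pro-Leu-Gly-Leu-Dpa-Ala-Arg-NH2 fluorescent substrate at 37 °C for 3 h in the dark. Precursor enzyme activated with APMA.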

The target of experiment [2] is T2, human MMP-7 (Homo sapiens, UniProt P09237).
T2 construct: purchased Kabushiki Kaisha Yagai Chuo Kenkyusho YU-31001
T2 sequence (P09237 95-267): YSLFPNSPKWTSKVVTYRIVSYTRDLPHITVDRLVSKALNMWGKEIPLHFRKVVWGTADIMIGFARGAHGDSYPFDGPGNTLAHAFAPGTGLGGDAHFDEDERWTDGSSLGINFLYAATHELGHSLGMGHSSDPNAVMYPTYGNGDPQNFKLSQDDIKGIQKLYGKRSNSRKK
Briefly: Enzyme inhibition activity against MMP-7 (matrilysin), fluorescent peptide substrate NFF-2. It is filed as biochemical. The conditions noted are these: human MMP-7, substrate NFF-2, 37° C. for 2.5 hours. Here is the method: The inhibition activity against human MMP-7 was measured by the same method as the method for MMP-3, by using a MMP-7 solution (0.025 unit/ml; No. YU-31001, manufactured by Kabushiki Kaisha Yagai Chuo Kenkyusho, purity: at least 99.9%) and a fluorescent peptide substrate MOCAc—Arg-Pro-Lys-Pro-Tyr—Ala-Nva-Trp-Met-Lys(Dnp) -NH2 [NFF-2, No. 3167-v, manufactured by Peptide Institute, Inc.]. The enzymatic reaction was carried out at 37° C. for 2.5 hours in a dark place, and the relative fluorescence intensity was measured at a fluorescence wavelength of 400 nm with an excitation wavelength of 327 nm.

The subject of experiment [3] is Colon 26/AD cells (mouse colon cancer). It is filed as in vivo. Here is the method: Colon 26 mouse colon cancer cells (obtained from Cancer Chemotherapy Center Foundation for Cancer Research) were transplanted subcutaneously to BALB/c mouse, 10 days later, the grown tumor was taken out. It was hashed in a Hanks equilibrium salt solution and passed through a metal mesh to obtain single cells, which were cultured in vitro (37° C., 5% CO2) (using 10% fetal bovine serum-containing Dulbecco's Modified Eagle Medium (D-5648, manufactured by Sigma Co.)). […] The same cell strain always produced and secreted MMP-2 in the supernatant of the in vitro culture, but when cultured by an addition of TNF-α (50 ng/ml) in the culture solution, it produced MMP-9 remarkably.
With reference to the method by Tsuruo et al (Japanese Journal of Cancer Research (Gann), Vol. 75, 193-198, 1984), the inhibition effects against experimental lung metastasis were evaluated. Namely, 3×10^4 Colon 26/AD cells (suspended in 0.2 ml of Minimum Essential Medium (manufactured by Nissui Seiyaku K. K.)) cultured in vitro were transplanted through the tail vein of a male BALB/c AnNCrj mouse (purchased from Charles River Japan, Inc.) of 6 weeks old (Day 0). In the case of Compound No. 37, it was suspended in a 1% Tween 80/physiological sodium chloride aqueous solution and intraperitoneally administered (administered in a volume of 10 ml/kg) immediately (within 5 minutes) before transplantation of the cells, 2 hours later and once per day on Day 1-4 and Day 7-11 (a total of 11 times). Further, in the case of Compound No. 157, it was dissolved in 100 mM Tris-HCl (pH 8.5)/150 mM NaCl and forcibly orally administered (administered in a volume of 10 ml/kg) by means of a metal sonde 30 minutes before transplantation of the cells, in the morning and evening of Day 1 and once per day on Day 2-4, Day 7-11 and Day 14 (a total of 12 times). To the vehicle control group, the respective solvents containing no test materials, were administered in the same manner. On Day 14 or Day 15, the lung of each mouse was taken out, and the weight was measured, and the metastatis inhibition rate was calculated in accordance with the following formula. [formula]
A is the weight of lung of the treated group
B is the average weight of lung of the normal group
C is the average weight of lung of the solvent control group.

Read-outs that look alike come from different tables or passages of the source. Marks after values point to notes of the source that are not given here.

T1 sequence (P14780 107-707 limits assumed): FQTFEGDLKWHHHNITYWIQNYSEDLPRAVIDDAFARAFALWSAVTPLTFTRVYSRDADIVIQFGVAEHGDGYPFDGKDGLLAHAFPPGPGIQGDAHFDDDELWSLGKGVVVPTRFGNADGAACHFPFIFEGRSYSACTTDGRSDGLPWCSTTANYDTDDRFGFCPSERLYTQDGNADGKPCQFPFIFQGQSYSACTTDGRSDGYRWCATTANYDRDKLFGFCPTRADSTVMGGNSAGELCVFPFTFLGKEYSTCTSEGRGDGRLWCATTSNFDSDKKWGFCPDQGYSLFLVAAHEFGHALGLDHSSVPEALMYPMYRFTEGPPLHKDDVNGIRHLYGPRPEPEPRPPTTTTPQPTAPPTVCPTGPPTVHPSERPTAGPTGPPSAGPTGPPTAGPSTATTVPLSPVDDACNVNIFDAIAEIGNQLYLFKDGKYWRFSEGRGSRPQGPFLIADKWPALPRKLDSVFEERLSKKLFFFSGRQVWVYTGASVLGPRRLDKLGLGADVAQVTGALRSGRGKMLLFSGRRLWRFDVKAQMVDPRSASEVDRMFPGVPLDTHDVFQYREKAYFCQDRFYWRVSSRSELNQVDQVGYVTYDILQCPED

For `CNC(=C[N+](=O)[O-])NNc1cc(C(F)(F)F)cc(Cl)n1` [Compound No. 37], the IC50 in experiment [1] (1st measurement, read-out: MMP-9 inhibition activities IC50, 1st) turned out to be 4.5 µM; in experiment [1] (2nd measurement, read-out: MMP-9 inhibition activities IC50, 2nd), 7 µM; in experiment [1] (average of 1st and 2nd (or single measurement), read-out: MMP-9 inhibition activities IC50, Average), 5.8 µM; in experiment [2] it was 24.5 µM. Besides, the “Metastatis inhibition ratio (%)” value in experiment [3] (30 mg/kg × 11 times, intraperitoneal, Day 14) stood at 40.2%*. Moreover, the “Lung weight increase (g) against normal mouse” value in experiment [3] (30 mg/kg × 11 times, intraperitoneal, Day 14, vehicle control 0.189 ± 0.07) turned out to be 0.113 ± 0.06 g. Moreover, the “Weight of lung (g) (Day 14)” value in experiment [3] (30 mg/kg × 11 times, intraperitoneal, Day 14, vehicle control 0.402, normal mouse 0.213) was found to be 0.326 g. The “inhibition ratio of experimental metastasis of Colon 26/AD to lung” value in experiment [3] (30 mg/kg, intraperitoneal administration, total of 11 times, male BALB/c mouse, from lung weight) turned out to be 40.2%.

Values taken from patent US6596863B2, “Medical composition containing nitroetheneamine Derivative or salt there of as active constituent” (Ishihara Sangyo Kaisha, Ltd., priority 1998, dated 2003).
